Where no end group is shown, it is not given here.
Experiments:
Assay type in all cases: cell-based, human
T-cell clone CSF-3 = test: Proliferative assay of T-cell clone CSF-3 (3H-thymidine incorporation); conditions: for EC50: peptide concentration inducing half-maximal proliferation, TCC CSF-3, Table 5; for Potency EC50: concentration inducing half-maximal proliferation; for Potency max. response / Potency % of Max. response / Potency % of max. response: percentage of highest proliferative response (100% = 28,255 c.p.m. for peptide 77)
Procedure: (§1) The proliferation of TCC in response to PS-SCL or individual peptides was tested by seeding in duplicate 2×10^4 T cells, 5×10^4 irradiated PBMC with or without mixtures from PS-SCL or peptide. Proliferation was measured by [^3H]-thymidine incorporation (Hemmer B. et al., 2000, J Immunol 164:861).
(§2) The proliferation of T-cell clones in response to PS-SCL or individual peptides was tested by seeding in duplicate 2×10^4 T-cells, 5×10^4 irradiated peripheral blood mononuclear cells with or without 200 μg/ml PS-SCL or peptide (Hemmer, B. et al. 1998, J Pept Res 52: 338-345). Proliferation was measured by ^3H-thymidine incorporation (Hemmer, B. et al. 1997, J Exp Med 185: 1651-1659). Experiments were repeated at least twice. HLA restriction was determined by using bare lymphocyte syndrome cells transfected with DR2a (DRB5*0101) or DR2b (DRB1*1501) (provided by G. Nepom, University of Washington, Seattle) (Kovats, S. et al. 1994, J Exp Med 179: 2017-2022). The proliferation of peripheral blood mononuclear cells was measured in an IL-7-modified 7-day primary proliferation assay. Peripheral blood mononuclear cells (1×10^5 per well; 10 wells each and 10 control wells per plate) were seeded with 10 ng/ml IL-7 and 15 μg/ml peptide. Then, 1 μCi ^3H-thymidine/well was added at day 7 for 12 h before radioactivity was measured. Wells were considered positive if the counts per minute exceeded the average background proliferation+3 s.d. (Reece J. C. et al., 1993, Immunol 151: 6175-6184).

[1] = tested on: peripheral blood mononuclear cells; test: IL-7-modified 7-day primary proliferation assay of peripheral blood mononuclear cells; conditions: number of wells of 10 with positive primary proliferative response, 15 μg/ml peptide
Procedure: as §2

[2] = tested on: TCRζ-chain phosphoisoforms / ZAP-70 in CSF-3 cells; test: T-cell-receptor signaling (tyrosine phosphorylation of TCR subunits, ZAP-70 immunoprecipitation); conditions: CSF-3 cells stimulated 5 or 10 min
Procedure: T-cells (1×10^6) were added to peptide-pulsed bare lymphocyte syndrome cells (2×10^6) and, after centrifugation (10 s at 300 g), were incubated at 37° C., washed once with PBS and incubated for 25 min on ice in lysis buffer (1% Nonidet-P40, 10 mM Tris-HCl, pH 7.2, 140 mM NaCl, 2 mM EDTA, 5 mM iodoacetamide, 1 mM Na3VO4 and complete protease inhibitor ‘cocktail’; Boehringer). After nuclear debris were removed, proteins in lysate supernatants were immunoprecipitated by incubation at 4° C. for 12 h with rabbit antibody against ZAP-70 (provided by L. Samelson, National Institute of Child Health and Human Development, National Institutes of Health). Proteins were separated by SDS-PAGE and immunoblotted with 4G10, a mouse monoclonal antibody against phosphotyrosine (Upstate Biotechnology, Lake Placid, N.Y.).

TCC GP5F11 = test: Proliferative assay of TCC GP5F11 (3H-thymidine incorporation); conditions: FIG. 4; result in words
Procedure: as §1

[3] = human autoantigenic mimics, Table 9
[4] = background 1,306 ± 582 c.p.m., Table 9
[5] = B. burgdorferi peptides, Table 8
[6] = background 2,899 ± 1,417 c.p.m., Table 8
[7] = background 2,899 ± 1,417 c.p.m., Table 10

Substance	EC50 (T-cell clone CSF-3) [µg/mL]	Potency EC50 (T-cell clone CSF-3; [5]) [µg/mL]	Potency % of Max. response (T-cell clone CSF-3; Table 8) [%]	PB PP [1, 6]	other results
DNIFKKETLI [D N I F K K E T L I, DNIFKKETLI]	1	–	–	–	–
DNITSSVLFN [Peptide 71, DNITSSVLFN]	–	–	–	–	Potency EC50 (T-cell clone CSF-3; [3]): 0.1 to 1 µg/mL; Potency max. response (T-cell clone CSF-3; Table 9): 60.6%; PB PP [1, 4]: 5; effect on early TCR signaling events (TCRζ-chain p38 phospho-isoforms, recruitment of active ZAP-70) [2]: fall agonist response
ENIKKILLRE [Peptide 46, ENIKKILLRE]	–	0.1 to 1	65.1	3	–
ENIYYSSVRT [Peptide 77, ENIYYSSVRT]	–	–	–	–	Potency EC50 (T-cell clone CSF-3; viral mimic peptides, Table 10): 1 to 10 µg/mL; Potency % of max. response (T-cell clone CSF-3; Table 10): 100%; PB PP [1, 7]: 3
ENVKKSRRLI [Peptide 66, ENVKKSRRLI]	–	–	–	–	Potency EC50 (T-cell clone CSF-3; [3]): 0.1 to 1 µg/mL; Potency max. response (T-cell clone CSF-3; Table 9): 64.1%; PB PP [1, 4]: 0
FFIKKRSLII [Peptide 54, FFIKKRSLII]	1	1 to 10	59.8	5	–
FNIIKSLLGG [52′, FNIIKSLLGG]	–	–	–	–	Potency EC50 (T-cell clone CSF-3; viral mimic peptides, Table 10): 1 to 10 µg/mL; stimulation (proliferation) of T-cell clone CSF-3 (T-cell clone CSF-3; result in words): stimulatory
FNIIKVHSSL [Peptide 37, FNIIKVHSSL]	–	0.001 to 0.01	69.3	1	–
FNITSSIRNK [Peptide 75, FNITSSIRNK]	–	–	–	–	Potency EC50 (T-cell clone CSF-3; viral mimic peptides, Table 10): 1 µg/mL; Potency % of max. response (T-cell clone CSF-3; Table 10): 63.5%; PB PP [1, 7]: 1
FNITSSTCEL [Peptide 64, FNITSSTCEL]	–	–	–	–	Potency EC50 (T-cell clone CSF-3; [3]): 0.1 to 1 µg/mL; Potency max. response (T-cell clone CSF-3; Table 9): 66.3%; PB PP [1, 4]: 1
FNIYKRVVDN [F N I Y K R V V D N, FNIYKRVVDN]	1	–	–	–	–
GHIKKKRVEA [Peptide 63, GHIKKKRVEA]	–	–	–	–	Potency EC50 (T-cell clone CSF-3; [3]): 1 to 10 µg/mL; Potency max. response (T-cell clone CSF-3; Table 9): 56.5%; PB PP [1, 4]: 0
LHIISKRVEA [Peptide 61, LHIISKRVEA]	–	–	–	–	Potency EC50 (T-cell clone CSF-3; [3]): 0.1 to 1 µg/mL; Potency max. response (T-cell clone CSF-3; Table 9): 70.0%; PB PP [1, 4]: 0
LNIKNSKLEI [Peptide 30, LNIKNSKLEI]	–	<0.001	64.2	0	–
LNITSSSYLF [Peptide 42, LNITSSSYLF]	–	1 to 10	71.4	0	–
NNIDKKVYTN [N N I D K K V Y T N, NNIDKKVYTN]	1 to 10	–	–	–	–

Substance	EC50 (T-cell clone CSF-3) [µg/mL]	Potency EC50 (T-cell clone CSF-3; [5]) [µg/mL]	Potency % of Max. response (T-cell clone CSF-3; Table 8) [%]	PB PP [1, 6]	other results
NNIKSKVDNA [Peptide 47, NNIKSKVDNA]	–	1 to 10	80.6	0	–
NNIYKKALIS [Peptide 59, NNIYKKALIS]	1	0.1 to 1	68.1	3	effect on early TCR signaling events (TCRζ-chain p38 phospho-isoforms, recruitment of active ZAP-70) [2]: fall agonist response
PIP5 KIII246-255: low-scoring peptide derived from H. sapiens phosphatidylinositol-4-phosphate 5-kinase type III (LDPSEPRTPV; UniProt Q9Y2I7 246-255, looked up, fragment)	–	–	–	–	proliferative response of TCC GP5F11 (potency) (TCC GP5F11): non-stimulatory
PNITFSVVYN [Peptide 74, PNITFSVVYN]	–	–	–	–	Potency EC50 (T-cell clone CSF-3; viral mimic peptides, Table 10): 0.1 to 1 µg/mL; Potency % of max. response (T-cell clone CSF-3; Table 10): 78.3%; PB PP [1, 7]: 0
QAIGKKTQNN [Peptide 26, QAIGKKTQNN]	–	<0.001	80.8	3	–
RNIFKKTVEN [R N I F K K T V E N, RNIFKKTVEN]	>100	–	–	–	–
SFIYSVVCLV [Peptide 62, SFIYSVVCLV]	–	–	–	–	Potency EC50 (T-cell clone CSF-3; [3]): 0.1 to 1 µg/mL; Potency max. response (T-cell clone CSF-3; Table 9): 75.7%; PB PP [1, 4]: 9
SNIIKKTSED [Peptide 57, SNIIKKTSED]	1	0.1 to 1	65.2	4	–
SNIIKSLSLF [S N I I K S L S L F, SNIIKSLSLF]	0.1 to 1	–	–	–	–
SNIKSKLILV [S N I K S K L I L V, SNIKSKLILV]	1	–	–	–	–
TLITKKISAI [Peptide 28, TLITKKISAI]	–	<0.001	65.9	1	–
WMKQNIGRFL [predicted stimulatory peptide with optimal amino acids in each position for TCC GP5F11]	–	–	–	–	proliferative response of TCC GP5F11 (potency) (TCC GP5F11): two orders of magnitude more potent than the target sequence
YNIIVSSLLL [Y N I I V S S L L L, YNIIVSSLLL]	1 to 10	–	–	–	–
YNIKKIKVED [Peptide 38, YNIKKIKVED]	–	0.1 to 1	62.7	1	–
YVKQNTLKLA (listed as Influenza virus) [Flu-HA308-317, influenza virus hemagglutinin decamer, target peptide of TCC GP5F11, reference compound]	–	–	–	–	proliferative response of TCC GP5F11 (potency) (TCC GP5F11): intermediate potency

From patent US20040072246A1, “System and method for identifying t cell and other epitopes and the like” (priority 2003, published 2004)
